# Earlier results in US20140100178A1, “COMPOSITION AND METHODS FOR SITE-SPECIFIC DRUG DELIVERY TO TREAT MALARIA AND OTHER LIVER DISEASES” (priority 2012, published 2014).
# Key:
# [1] = prophylactic doses (0.5 mg base/kg/day); children and men with normal G6PD activity; toxicity associated with >10%
# [2] = in vivo
structure (smiles),measurement,setting,value
"COc1cc(NC(C)CCCN)c2ncccc2c1 (centres unmarked) [primaquine, Primaquine]",mean methemoglobin rates,[1],5.8%
same,half life,[2],~4 h
